Measured values reported in patent US11155851B2, “Compounds and methods relating to lysosomal storage disorders” (University of Washington through its Center of …, priority 2013, dated 2021).

Key:
[1] = target: T1, acid-β-glucocerebrosidase (ABG) (Homo sapiens, UniProt P04062); assay: Simultaneous detection of multiple enzyme activity in dried blood spots by MS/MS (ABG); assay type: biochemical; conditions: Compounds 1 and 7 used simultaneously, substrates 100 μmol/L, dried blood disk, 15 to 24 hours at 37° Celsius
T1 construct: from tissue; host or cells: dried blood spots from adult human venous blood
T1 sequence (P04062 40-536): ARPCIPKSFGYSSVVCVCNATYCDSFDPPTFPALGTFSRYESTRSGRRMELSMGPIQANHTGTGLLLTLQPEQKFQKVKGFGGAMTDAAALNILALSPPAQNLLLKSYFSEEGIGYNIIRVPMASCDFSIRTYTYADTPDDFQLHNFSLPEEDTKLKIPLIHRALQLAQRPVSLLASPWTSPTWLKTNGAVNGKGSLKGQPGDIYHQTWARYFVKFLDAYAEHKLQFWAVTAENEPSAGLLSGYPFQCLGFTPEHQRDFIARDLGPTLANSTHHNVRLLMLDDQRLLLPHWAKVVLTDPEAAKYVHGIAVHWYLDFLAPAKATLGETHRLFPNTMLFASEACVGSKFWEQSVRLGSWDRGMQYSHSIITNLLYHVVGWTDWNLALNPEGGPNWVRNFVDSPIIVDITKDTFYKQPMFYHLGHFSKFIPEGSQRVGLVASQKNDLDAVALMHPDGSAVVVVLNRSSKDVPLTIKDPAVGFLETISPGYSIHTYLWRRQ
Method: The substrates of Compounds 1 and 7 are used simultaneously to detect the presence of acid-β-glucocerebrosidase (ABG) and galactocerebroside-β-galactosidase (GALC) respectively. Blood is obtained by venipuncture from consenting adult humans and blotted on filter paper. For each sample, a disk of 3 mm diameter is punched from the areas of dried blood into a well of a 96-well microtiter plate. The blood disk is then incubated directly with an assay solution containing substrates at a final concentration of 100 μmol/L and corresponding internal standards at a final concentration of 1 μmol/L. To the assay solution, a final concentration of 0.5 mol/L sodium acetate with sodium taurocholate buffer is also added (30 μl final assay volume). The assay mixture containing the blood disk is incubated for 15 to 24 hours at 37° Celsius with orbital shaking (150 rpm) in a thermostatic air shaker. After the incubation period, a 100 μl aliquot of 50:50 methanol/ethyl acetate is added to each tube or well to terminate the enzymatic reaction. The reaction is then supplemented with 400 μl HPLC grade ethyl acetate and 200 μl water. […] For mass spectrometry analysis, the electrospray source is operated in positive mode, and the ions are detected in parent-ion scan mode. The amount of enzymatic product is calculated from the ion abundance ratio of the product to the internal standard minus that of a blank.

[2] = target: T1, acid-β-glucocerebrosidase (ABG); assay: Detection of enzyme activity in dried blood spots by mass spectrometry (ABG substrate); assay type: biochemical; conditions: FIG. 6, dried blood disk, substrate 500 μmol/L, 15 to 24 hours at 37° Celsius
Method: The substrates of Compounds 1 and 7 are used to detect the presence of acid-β-glucocerebrosidase (ABG) and galactocerebroside-β-galactosidase (GALC) respectively. Blood is obtained by venipuncture from consenting adult humans and blotted on filter paper. For each sample, a disk of 3 mm diameter is punched from the areas of dried blood into a well of a 96-well microtiter plate. The blood disk is then incubated directly with an assay solution containing substrates at a final concentration of 500 μmol/L and corresponding internal standards at a final concentration of 5 μmol/L. To the assay solution, a final concentration of 0.5 mol/L sodium acetate buffer with sodium taurocholate is also added. The assay mixture containing the blood disk is incubated for 15 to 24 hours at 37° Celsius with orbital shaking (150 rpm) in a thermostatic air shaker. After the incubation period, an aliquot of pure methanol is added to each tube or well to terminate the enzymatic reaction. Before going into the mass spectrometer, the incubated reaction mixture is diluted with pure methanol. For the mass spectrometry analysis, the electrospray source is operated in positive mode, and the ions are detected in parent-ion scan mode. The amount of enzymatic product is calculated from the ion abundance ratio of the product to the internal standard minus that of a blank.

## CCCCCCCCCCCCC/C=C/C(O)C(CO[C@@H]1OC(CO)[C@@H](O)C(O)C1O)NC(=O)CCCC (some centres unmarked) [Compound 1]
[1]
  detection of ABG (enzymatic product by MS/MS): Detection of both ABG and GALC is achieved
[2]
  improvement in product detection over a similar compound substituting the C5 amido for a C12 amido: 2 fold
